Legend:
[1] = biological target: T1, ASK1/MAP3K5 (Homo sapiens, UniProt Q99683); assay: ASK1/MAP3K5 kinase assay by Reaction Biology Corp. (headed ASK1 TR-FRET Assay); format: biochemical; details: 20 μM myelin basic protein, 10 μM ATP
T1 sequence (Q99683 1-1374): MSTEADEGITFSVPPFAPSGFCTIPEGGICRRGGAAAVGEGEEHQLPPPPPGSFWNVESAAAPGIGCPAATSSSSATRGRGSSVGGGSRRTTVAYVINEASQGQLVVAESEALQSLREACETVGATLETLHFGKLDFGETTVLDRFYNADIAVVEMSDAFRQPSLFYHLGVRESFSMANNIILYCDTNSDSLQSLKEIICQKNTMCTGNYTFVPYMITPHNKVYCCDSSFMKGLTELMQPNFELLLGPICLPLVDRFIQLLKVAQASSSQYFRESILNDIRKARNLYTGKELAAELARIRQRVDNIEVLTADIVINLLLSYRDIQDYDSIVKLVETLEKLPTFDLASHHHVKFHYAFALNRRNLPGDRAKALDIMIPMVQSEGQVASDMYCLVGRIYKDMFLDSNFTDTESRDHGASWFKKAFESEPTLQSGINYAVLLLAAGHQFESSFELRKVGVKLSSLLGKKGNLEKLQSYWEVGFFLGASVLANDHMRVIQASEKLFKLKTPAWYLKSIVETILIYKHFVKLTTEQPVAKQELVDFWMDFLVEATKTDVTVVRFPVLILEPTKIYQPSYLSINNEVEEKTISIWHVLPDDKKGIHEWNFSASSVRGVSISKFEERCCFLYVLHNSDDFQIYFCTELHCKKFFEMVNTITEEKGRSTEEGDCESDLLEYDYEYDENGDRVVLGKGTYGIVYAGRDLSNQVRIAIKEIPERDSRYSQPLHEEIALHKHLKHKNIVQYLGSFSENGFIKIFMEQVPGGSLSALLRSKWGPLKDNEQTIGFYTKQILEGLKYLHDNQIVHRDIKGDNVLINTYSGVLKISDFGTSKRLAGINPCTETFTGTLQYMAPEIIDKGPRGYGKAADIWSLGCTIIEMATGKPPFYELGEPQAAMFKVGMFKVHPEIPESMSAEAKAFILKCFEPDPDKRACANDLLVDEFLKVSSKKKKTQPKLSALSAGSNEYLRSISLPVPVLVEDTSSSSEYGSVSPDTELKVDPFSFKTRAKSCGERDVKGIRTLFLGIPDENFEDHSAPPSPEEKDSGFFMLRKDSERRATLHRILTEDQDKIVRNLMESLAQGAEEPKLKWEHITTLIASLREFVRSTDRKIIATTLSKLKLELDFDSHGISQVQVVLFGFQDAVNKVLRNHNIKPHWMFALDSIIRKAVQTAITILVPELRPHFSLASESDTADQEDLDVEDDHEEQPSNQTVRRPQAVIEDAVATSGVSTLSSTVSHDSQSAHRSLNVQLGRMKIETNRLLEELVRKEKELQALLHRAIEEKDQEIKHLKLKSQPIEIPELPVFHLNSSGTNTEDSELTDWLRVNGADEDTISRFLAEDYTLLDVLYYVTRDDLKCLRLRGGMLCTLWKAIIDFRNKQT
Outline: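 Radiometric filter-binding assay with ASK1/MAP3K5, 20 μM MBP substrate and 10 μM ATP plus ^33P-ATP in HEPES pH 7.5 buffer with 1% DMSO. Compounds were preincubated with kinase 20 min, and the reaction then ran 2 hours at room temperature.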

[2] = biological target: T2, ASK1 T838 auto phosphorylation (Homo sapiens, UniProt Q99683); assay: ASK1 (AUTO PHOS T838) assay, MSD format, in HEK-293T cells transfected with ASK1-V5; format: cell-based; details: ASK1 T838 auto phosphorylation in HEK-293T cells, 1 hr compound incubation; class symbols
T2 sequence (Q99683 1-1374): T1 sequence (Q99683 1-1374)
Outline: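 HEK-293T cells transiently transfected with full-length ASK1-V5 plasmid were replated, then treated 1 h at 37 °C with a 10-point, 3-fold series from 20 μM. Lysates were probed by MSD with anti-pASK1 T838 and a sulfo-tag secondary, read by chemiluminescence. IC50 came from a 4-parameter fit of normalized % activity.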

[3] = In vivo brain penetration, rat Kpuu study; details: brain and plasma (unbound concentrations), IV infusion for four hours (1 mg/kg) to steady state, Kpuu=Cu,b/Cu,p
Procedure: Example 113: In Vivo Brain Penetration To evaluate the CNS penetration of the compounds described herein, several compounds were selected for in vivo rat Kpuu studies. In these experiments the compounds are administered via an IV infusion (using N,N-dimethylacetamide:ethanol:1,2-propylene glycol:water in a 1:1:3:5 ratio as the vehicle) in the carotid artery for a period of four hours (1 mg/kg, 0.1 mg/mL) to reach steady state. After this time the plasma and brain concentration levels are quantified, and the values are adjusted by the measured protein binding in plasma and brain homogenate to calculate the Kpuu (see Di, […] . Blood-Brain Barrier in Drug Discovery (Wiley)) according to the equation below. Kpuu=Cu,b/Cu,p Wherein: • Cu,b=Unbound concentration in brain (C×fu,b). (C=concentration at steady state; fu,b=fraction unbound in brain) • And in which: Cu,p=Unbound concentration in plasma (C×fu,p). (C=concentration at steady state; fu,p=fraction unbound in plasma) Plasma and brain protein binding values were generated via the Rapid Equilibrium Dialysis method. The compound of interest was incubated in K2EDTA plasma and brain homogenate (homogenized 1:7 (w:v) in 1×PBS) purchased from BioIVT (Westbury, NY), opposite a buffered compartment of 100 mM Potassium phosphate/150 mM Sodium chloride, pH 7.4, at 1 μM for 4 hr and 6 hr respectively. At the conclusion of incubation samples were taken from both matrix and buffered compartments, matrix-matched using blank buffer and matrix, extracted with acetonitrile, diluted with water, and analyzed utilizing an Agilent RapidFire 365 high-throughput LC coupled with MS/MS detection via an AB Sciex 5500. Free fractions (fu) were then calculated by comparing internal standard/analyte peak-area ratios of matrix and buffered compartments. […] Total drug concentration in plasma and brain tissue was measured via well-established bioanalytical extraction (protein precipitation) and detection methods (LC-MS/MS).

| Structure (SMILES) | IC50 ([1]; class symbols) [nM] | IC50 [2] [nM] | Kp uu at 4 h [3] | IC50 ([1]; class given in words) [nM] |
| --- | --- | --- | --- | --- |
| C[C@@H](n1cnnc1-c1cccc(NC(=O)c2cn(C)nc2C(F)F)n1)C(F)(F)F [Example 23, (R)-3-(Difluoromethyl)-1-methyl-N-(6-(4-(1,1,1-trifluoropropan-2-yl)-4H-1,2,4-triazol-3-yl)pyridin-2-yl)-1H-pyrazole-4-carboxamide] | ≤ 100 | ≤ 1000 | 0.14 | – |
| C=CCn1cc(C(=O)Nc2cccc(-c3nncn3C(C)C(F)(F)F)n2)c(OC)n1 (centres unmarked) [Example 56, 1-Allyl-3-methoxy-N-(6-(4-(1,1,1-trifluoropropan-2-yl)-4H-1,2,4-triazol-3-yl)pyridin-2-yl)-1H-pyrazole-4-carboxamide] | ≤ 100 | ≤ 1000 | 0.33 | – |
| COc1nn(-c2ncccc2C)cc1C(=O)Nc1cccc(-c2nncn2C(C)C)n1 [Example 62, N-(6-(4-Isopropyl-4H-1,2,4-triazol-3-yl)pyridin-2-yl)-3-methoxy-1-(3-methylpyridin-2-yl)-1H-pyrazole-4-carboxamide] | ≤ 100 | ≤ 1000 | 0.16 | – |
| COc1nn(-c2cnccn2)cc1C(=O)Nc1cccc(-c2nncn2[C@H](C)C(F)(F)F)n1 [Example 88, (R)-3-Methoxy-1-(pyrazin-2-yl)-N-(6-(4-(1,1,1-trifluoropropan-2-yl)-4H-1,2,4-triazol-3-yl)pyridin-2-yl)-1H-pyrazole-4-carboxamide] | 100 to 1000 | 1000 to 10000 | – | – |
| COc1nn(C)cc1C(=O)Nc1cccc(-c2cncn2C2CC2)c1 [Example 101, N-(3-(1-cyclopropyl-1H-imidazol-5-yl)phenyl)-3-methoxy-1-methyl-1H-pyrazole-4-carboxamide] | 1000 to 10000 | > 10000 | – | – |
| COc1nn(CC(F)(F)F)cc1C(=O)Nc1cccc(-c2nncn2C(C)C)n1 [Example 102, N-(6-(4-Isopropyl-4H-1,2,4-triazol-3-yl)pyridin-2-yl)-3-methoxy-1-(2,2,2-trifluoroethyl)-1H-pyrazole-4-carboxamide] | ≤ 100 | ≤ 1000 | – | – |
| COc1nn(CC(F)(F)F)cc1C(=O)Nc1cccc(-c2nncn2[C@@H](C)C(F)(F)F)n1 [Example 103, (S)-3-Methoxy-1-(2,2,2-trifluoroethyl)-N-(6-(4-(1,1,1-trifluoropropan-2-yl)-4H-1,2,4-triazol-3-yl)pyridin-2-yl)-1H-pyrazole-4-carboxamide] | ≤ 100 | ≤ 1000 | – | – |
| COc1nn(CC(F)(F)F)cc1C(=O)Nc1cccc(-c2nncn2[C@@H](C)C(C)C)n1 [Example 104, (S)-3-Methoxy-N-(6-(4-(3-methylbutan-2-yl)-4H-1,2,4-triazol-3-yl)pyridin-2-yl)-1-(2,2,2-trifluoroethyl)-1H-pyrazole-4-carboxamide] | ≤ 100 | ≤ 1000 | – | – |
| COc1nn(CC(F)(F)F)cc1C(=O)Nc1cccc(-c2nncn2C2CC2)n1 [Example 105, N-(6-(4-Cyclopropyl-4H-1,2,4-triazol-3-yl)pyridin-2-yl)-3-methoxy-1-(2,2,2-trifluoroethyl)-1H-pyrazole-4-carboxamide] | ≤ 100 | ≤ 1000 | – | – |
| COc1nn(C)cc1C(=O)Nc1cccc(-c2nncn2C2COC2)n1 [Example 107, 3-Methoxy-1-methyl-N-(6-(4-(oxetan-3-yl)-4H-1,2,4-triazol-3-yl)pyridin-2-yl)-1H-pyrazole-4-carboxamide] | – | > 10000 | – | ≥ 10000 |
| COc1nn(C)cc1C(=O)Nc1cccc(-c2nncn2C2CCOCC2)n1 [Example 108, 3-Methoxy-1-methyl-N-(6-(4-(tetrahydro-2H-pyran-4-yl)-4H-1,2,4-triazol-3-yl)pyridin-2-yl)-1H-pyrazole-4-carboxamide] | 100 to 1000 | 1000 to 10000 | – | – |

The remaining lines, values ahead:

| IC50 ([1]; class symbols) [nM] | IC50 [2] [nM] | Kp uu at 4 h [3] | IC50 ([1]; class given in words) [nM] | Structure (SMILES) |
| --- | --- | --- | --- | --- |
| ≤ 100 | ≤ 1000 | – | – | C[C@H](n1cnnc1-c1cccc(NC(=O)c2cn(-c3cnccn3)nc2C(F)F)n1)C(F)(F)F [Example 89, (S)-3-(Difluoromethyl)-1-(pyrazin-2-yl)-N-(6-(4-(1,1,1-trifluoropropan-2-yl)-4H-1,2,4-triazol-3-yl)pyridin-2-yl)-1H-pyrazole-4-carboxamide] |
| ≤ 100 | ≤ 1000 | – | – | COCCn1cc(C(=O)Nc2cccc(-c3cncn3C(C)C)n2)c(OC)n1 [Example 92, N-(6-(1-Isopropyl-1H-imidazol-5-yl)pyridin-2-yl)-3-methoxy-1-(2-methoxyethyl)-1H-pyrazole-4-carboxamide] |
| ≤ 100 | ≤ 1000 | – | – | Cc1cncc(-n2cc(C(=O)Nc3cccc(-c4cncn4C(C)C)n3)c(C(F)F)n2)c1 [Example 93, 3-(Difluoromethyl)-N-(6-(1-isopropyl-1H-imidazol-5-yl)pyridin-2-yl)-1-(5-methylpyridin-3-yl)-1H-pyrazole-4-carboxamide] |
| ≤ 100 | ≤ 1000 | – | – | CC(C)n1cncc1-c1cccc(NC(=O)c2cn(-c3cccnc3)nc2C(F)F)n1 [Example 94, 3-(Difluoromethyl)-N-(6-(1-isopropyl-1H-imidazol-5-yl)pyridin-2-yl)-1-(pyridin-3-yl)-1H-pyrazole-4-carboxamide] |
| ≤ 100 | ≤ 1000 | – | – | CC(C)n1cncc1-c1cccc(NC(=O)c2cn(-c3cncc(C#N)c3)nc2C(F)F)n1 [Example 95, 1-(5-Cyanopyridin-3-yl)-3-(difluoromethyl)-N-(6-(1-isopropyl-1H-imidazol-5-yl)pyridin-2-yl)-1H-pyrazole-4-carboxamide] |
| 100 to 1000 | ≤ 1000 | – | – | CC(C)n1cncc1-c1cccc(NC(=O)c2cn(-c3cncc(C4CC4)c3)nc2C(F)F)n1 [Example 96, 1-(5-Cyclopropylpyridin-3-yl)-3-(difluoromethyl)-N-(6-(1-isopropyl-1H-imidazol-5-yl)pyridin-2-yl)-1H-pyrazole-4-carboxamide] |
| ≤ 100 | ≤ 1000 | – | – | COc1cncc(-n2cc(C(=O)Nc3cccc(-c4cncn4C(C)C)n3)c(C(F)F)n2)c1 [Example 97, 3-(Difluoromethyl)-N-(6-(1-isopropyl-1H-imidazol-5-yl)pyridin-2-yl)-1-(5-methoxypyridin-3-yl)-1H-pyrazole-4-carboxamide] |
| 100 to 1000 | ≤ 1000 | – | – | CC(C)n1cncc1-c1cccc(NC(=O)c2cn(-c3cncc(N(C)C)c3)nc2C(F)F)n1 [Example 98, 3-(Difluoromethyl)-1-(5-(dimethylamino)pyridin-3-yl)-N-(6-(1-isopropyl-1H-imidazol-5-yl)pyridin-2-yl)-1H-pyrazole-4-carboxamide] |
| ≤ 100 | ≤ 1000 | – | – | CC(C)n1cncc1-c1cccc(NC(=O)c2cn(-c3cncc(O)c3)nc2C(F)F)n1 [Example 99, 3-(Difluoromethyl)-1-(5-hydroxypyridin-3-yl)-N-(6-(1-isopropyl-1H-imidazol-5-yl)pyridin-2-yl)-1H-pyrazole-4-carboxamide] |
| ≤ 100 | ≤ 1000 | – | – | CC(C)Oc1cncc(-n2cc(C(=O)Nc3cccc(-c4cncn4C(C)C)n3)c(C(F)F)n2)c1 [Example 100, 3-(Difluoromethyl)-1-(5-isopropoxypyridin-3-yl)-N-(6-(1-isopropyl-1H-imidazol-5-yl)pyridin-2-yl)-1H-pyrazole-4-carboxamide] |
| ≤ 100 | ≤ 1000 | – | – | COc1nn(CC(F)(F)F)cc1C(=O)Nc1cccc(-c2cncn2C(C)C)n1 [Example 106, N-(6-(1-Isopropyl-1H-imidazol-5-yl)pyridin-2-yl)-3-methoxy-1-(2,2,2-trifluoroethyl)-1H-pyrazole-4-carboxamide] |

— patent US11999715B2, “ASK1 inhibiting agents” (BIOGEN MA INC., priority 2018, dated 2024)
